Experimental data taken from BindingDB's records for patent US10227314 (Sova Pharmaceuticals, 2019).

Target: Cystathionine gamma-lyase (Homo sapiens, UniProt P32929)
Assay: CSE In Vitro Assay

Chain of Cystathionine gamma-lyase (P32929 whole entry): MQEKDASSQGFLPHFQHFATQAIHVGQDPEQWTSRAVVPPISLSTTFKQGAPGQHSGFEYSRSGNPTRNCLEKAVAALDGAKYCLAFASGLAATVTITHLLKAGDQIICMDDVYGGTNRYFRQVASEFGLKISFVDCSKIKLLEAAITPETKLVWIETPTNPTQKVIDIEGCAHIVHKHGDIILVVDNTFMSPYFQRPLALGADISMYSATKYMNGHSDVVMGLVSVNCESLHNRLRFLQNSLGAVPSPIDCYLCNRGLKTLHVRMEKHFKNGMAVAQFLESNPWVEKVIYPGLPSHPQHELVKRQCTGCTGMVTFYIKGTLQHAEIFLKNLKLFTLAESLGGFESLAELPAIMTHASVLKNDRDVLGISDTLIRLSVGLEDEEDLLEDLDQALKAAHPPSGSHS

SMILES | IC50 [µM]
N#CCC(N)c1nnn[nH]1 (configuration not stated) [US10227314, Example 1] | > 100
C#CC[C@H](N)c1nnn[nH]1 [US10227314, Example 2] | < 25
